Experimental findings from ChEMBL document CHEMBL3868620, “Synthesis, DNA binding and antitrypanosomal activity of benzimidazole analogues of DAPI” (Bioorg Med Chem Lett, 2016) are described below.

Broadly, the IC50 is the midpoint of a concentration-inhibition curve. A word on the ΔTm: it is the shift of the melting midpoint relative to a reference.

Where only a bound is given, the exact number is not on record here.

The subject of data set [1] is Trypanosoma brucei rhodesiense. The data set can be described thus: Antitrypanosomal activity against bloodstream form of Trypanosoma brucei rhodesiense STIB900 after 70 hrs by Alamar blue assay. The following applies: STIB900, 70 h. The data set is classed as functional. A general note: Alamar Blue is a resazurin reagent that responds to reducing activity.
A short description of data set [2]: Selectivity index, ratio OF IC50 for rat L6 cells to IC50 for bloodstream form of Trypanosoma brucei rhodesiense STIB900. The data set is classed as functional.
The nature of data set [3]: Cytotoxicity against rat L6 cells assessed as reduction in cell viability after 70 hrs by Alamar blue assay. The data set is classed as toxicity.
Data set [4] is described as follows: Binding affinity to poly(dA-dT)n DNA (unknown origin) assessed as change in melting temperature at 0.3 molar ratio of compound:DNA by spectrophotometric analysis.

Compound `c1cc2nc(-c3ccc(C4=NCCN4)s3)[nH]c2cc1C1=NCCN1` returned an IC50 in data set [1] of 67 nM. For the same compound, the “Ratio IC50” value in data set [2] was 1925. In addition, the IC50 at 70 h in data set [3] was 129000 nM. Further, the ΔTm in data set [4] came out at 26 °C.
Take `Cn1c(-c2ccc(C(=N)N)cc2)nc2cc(C(=N)N)ccc21`: in data set [1], half-maximal inhibition (IC50) was put at 15 nM. In addition, the “Ratio IC50” value in data set [2] was >11266. The 50% inhibitory concentration (IC50) at 70 h in data set [3] is > 169000 nM. The thermal shift (ΔTm) in data set [4] came out at 8 °C.
For the compound `N=C(N)c1ccc(-c2cc3ccc(C(=N)N)cc3[nH]2)cc1` [DAPI], the “Ratio IC50” value in data set [2] is 48. The half-inhibitory concentration (IC50) at 70 h in data set [3] came out at 860 nM. The shift in melting temperature (ΔTm) in data set [4] was > 27 °C.
Consider `N=C(N)c1ccc(-c2nc3cc(C(=N)N)ccc3n2C2CCCCC2)cc1`, for which half-maximal inhibition in data set [1] (IC50) was put at 529 nM. Besides, the “Ratio IC50” value in data set [2] is on record as >306. Besides, in data set [3], the IC50 at 70 h is > 162000 nM. For the same compound, in data set [4], the ΔTm worked out at 2 °C.
Taken in the same sequence, the figures for `N=C(N)c1ccc(-c2nc3ccc(C(=N)N)cc3n2O)cc1` were 8430 nM, >25, > 210000 nM and 1.1 °C.
Taken in the same sequence, the figures for `N=C(N)c1ccc(-c2nc3cc(C(=N)N)ccc3[nH]2)cc1` were 31 nM, 848, 26300 nM and 24.7 °C.
For `N=C(N)c1ccc2nc(-c3ccc(C(=N)N)s3)[nH]c2c1` the same measures were 19 nM, 1405, 26700 nM and 25.2 °C.
Compound `CCCn1c(-c2ccc(C(=N)N)cc2)nc2cc(C(=N)N)ccc21` had a half-inhibitory concentration (IC50) in data set [1] of 31 nM. Moreover, the “Ratio IC50” value in data set [2] is reported as >4419. The IC50 at 70 h in data set [3] was > 137000 nM. In addition, the shift in melting temperature (ΔTm) in data set [4] stood at 2.5 °C.
In data set [1], `N=C(N)c1ccc2nc(-c3ccc(C(=N)N)o3)[nH]c2c1` returned a half-inhibitory concentration (IC50) of 48 nM. In data set [2], the “Ratio IC50” value was 3229. For the same compound, the IC50 at 70 h in data set [3] was 150000 nM. In addition, in data set [4], the ΔTm was 10.1 °C.
Taken in the same sequence, the figures for `CCn1c(-c2ccc(C(=N)N)cc2)nc2cc(C(=N)N)ccc21` were 64 nM, >3234, > 207000 nM and 5.5 °C.
